Where two headings read alike, the source gives them in different places.
System: lipid peroxidation in the Substantia Nigra
Format: in vivo
Details: for Lipid Peroxidation: Substantia Nigra, 24 hours; for lipid peroxidation in the Substantia Nigra: treatment before, with, or after infusion with Paraquat, p<0.01
Method: Microinfusion of 50 μg of Paraquat into the Substantia Nigra (n=20 rats) led to an increase in motor activity with the animals performing jumps and moving in circles in a contralateral direction relative to the injection position, about 24 minutes later; all of the animals were dead 24±2.5 hours after infusion. […]
[…]. Enzymol. 52, 302-310, 1978.

[1] = 50 μg paraquat by microinfusion, 5 minutes later 100 mg/kg b.w. intraperitoneal
[2] = pretreated intraperitoneally 120 mg/kg b.w., after 5 minutes paraquat (50 μg)
[3] = simultaneous microinfusion of paraquat (50 μg) with 1 μg compound
[4] = simultaneously 50 μg paraquat by microinfusion and 120 mg/kg b.w. intraperitoneal

| Structure (SMILES) | Lipid Peroxidation [1] | Lipid Peroxidation [2] | Lipid Peroxidation [3] | Lipid Peroxidation [4] | lipid peroxidation in the Substantia Nigra |
| --- | --- | --- | --- | --- | --- |
| CC1(C)CC(OC(=O)CCCCCCCCC(=O)OC2CC(C)(C)N(O)C(C)(C)C2)CC(C)(C)N1O [MP1001, BIS(1-HYDROXYL-2,2,6,6-TETRAMETHYL-4-PIPERIDINYL)DECANDIOATE] | 4.8 ± 0.57 nmol MDA × h^−1 × mg prot^−1 | 4.7 ± 0.49 nmol MDA × h^−1 × mg prot^−1 | 5.4 ± 0.84 nmol MDA × h^−1 × mg prot^−1 | 5.1 ± 0.94 nmol MDA × h^−1 × mg prot^−1 | markedly and significantly (p<0.01) reduced lipid peroxidation |
| CC1(C)CC(OC(=O)CCCCCCCCC(=O)OC2CC(C)(C)N(O)C(C)(C)C2)CC(C)(C)N1O [MP1002, bis(1-oxyl-2,2,6,6-tetramethyl-4-piperidinyl)decandioate] | 4.1 ± 0.39 nmol MDA × h^−1 × mg prot^−1 | 5.2 ± 0.75 nmol MDA × h^−1 × mg prot^−1 | 4.3 ± 0.63 nmol MDA × h^−1 × mg prot^−1 | 4.9 ± 0.86 nmol MDA × h^−1 × mg prot^−1 | markedly and significantly (p<0.01) reduced lipid peroxidation |

Source: patent US8461186B2, “Use of N-piperidine derivatives for the treatment of neurodegenerative pathologies” (Medestea Research & Production S.p.A., priority 2004, dated 2013)
